Reference: US9527856B2, “Oxindole compounds carrying a CO-bound spiro substituent and use thereof for treating vasopressin-related diseases” (AbbVie Deutschland GmbH & Co. KG, priority 2014, dated 2016)

Key:
[1] = target: T1, human vasopressin V1b receptor (Homo sapiens, UniProt P47901); experiment: biochemical; conditions: Ki(h-V1b)* [nM], CHO-K1 cell membranes, displacement of 3H-AVP
T1 sequence (P47901 1-424): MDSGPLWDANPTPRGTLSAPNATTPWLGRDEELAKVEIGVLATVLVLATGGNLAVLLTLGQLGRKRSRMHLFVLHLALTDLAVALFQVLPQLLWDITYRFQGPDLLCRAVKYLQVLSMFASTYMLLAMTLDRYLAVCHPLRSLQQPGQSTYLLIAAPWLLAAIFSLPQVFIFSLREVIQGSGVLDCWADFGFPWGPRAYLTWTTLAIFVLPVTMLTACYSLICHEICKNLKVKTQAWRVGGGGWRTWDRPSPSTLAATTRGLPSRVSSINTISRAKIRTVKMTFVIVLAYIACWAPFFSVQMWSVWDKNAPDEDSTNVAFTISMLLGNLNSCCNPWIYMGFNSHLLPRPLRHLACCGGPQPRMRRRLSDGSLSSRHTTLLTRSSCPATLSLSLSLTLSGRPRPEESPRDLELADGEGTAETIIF

[2] = target: human vasopressin V1a receptor (Homo sapiens, UniProt P37288); experiment: Vasopressin V1a receptor binding assay; conditions: selectivity for human V1b over human V1a, quotient of binding constants
Sequence of human vasopressin V1a receptor (P37288 whole entry): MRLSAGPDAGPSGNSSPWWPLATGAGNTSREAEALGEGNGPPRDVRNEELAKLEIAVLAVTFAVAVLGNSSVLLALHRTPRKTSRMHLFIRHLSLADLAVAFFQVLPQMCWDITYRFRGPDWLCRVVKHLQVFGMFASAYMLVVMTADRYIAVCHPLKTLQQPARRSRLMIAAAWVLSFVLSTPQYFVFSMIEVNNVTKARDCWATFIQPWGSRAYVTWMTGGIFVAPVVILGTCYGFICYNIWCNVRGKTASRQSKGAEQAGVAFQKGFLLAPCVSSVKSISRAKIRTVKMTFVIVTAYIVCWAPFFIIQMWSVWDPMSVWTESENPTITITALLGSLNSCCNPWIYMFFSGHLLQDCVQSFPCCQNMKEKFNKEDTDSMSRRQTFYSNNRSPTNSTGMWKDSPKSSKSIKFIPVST

SMILES | Ki [1] [nM] | Ki(h-V1a)/Ki(h-V1b) [2]
CCOc1ncccc1[C@]1(NC(=O)N2CC3(C2)CN(C2CCN(C(C)C)CC2)C3)C(=O)N(S(=O)(=O)c2ccc(C)cc2)c2ccc(C#N)cc21 [Example 25, N-[(3S)-5-Cyano-3-(2-ethoxy-3-pyridyl)-2-oxo-1-(p-tolylsulfonyl)indolin-3-yl]-2-(1-isopropyl-4-piperidyl)-2,6-diazaspiro[3.3]heptane-6-carboxamide] | 10 to 100 | ++ (25-75)
CCOc1ccccc1[C@]1(NC(=O)N2CC3(C2)CN(C2CCN(C(C)C)CC2)C3)C(=O)N(S(=O)(=O)c2ccc(C)cc2)c2ccc(C#N)cc21 [Example 41, N-[(3S)-5-Cyano-3-(2-ethoxyphenyl)-2-oxo-1-(p-tolylsulfonyl)indolin-3-yl]-2-(1-isopropyl-4-piperidyl)-2,6-diazaspiro[3.3]heptane-6-carboxamide] | 10 to 100 | +++ (>75)
CCOc1ncccc1[C@]1(NC(=O)N2CC3(C2)CN(C2CCN(C)CC2)C3)C(=O)N(S(=O)(=O)c2ccccc2OC)c2ccc(C#N)cc21 [Example 32, N-[(3S)-5-Cyano-3-(2-ethoxy-3-pyridyl)-1-(2-methoxyphenyl)sulfonyl-2-oxo-indolin-3-yl]-2-(1-methyl-4-piperidyl)-2,6-diazaspiro[3.3]heptane-6-carboxamide] | 10 to 100 | ++ (25-75)
CCOc1ncccc1[C@]1(NC(=O)N2CC3(CN(CCN4CCOCC4)C3)C2)C(=O)N(S(=O)(=O)c2ccc(OC)cn2)c2ccc(C#N)cc21 [Example 4, N-[(3S)-5-Cyano-3-(2-ethoxy-3-pyridyl)-1-[(5-methoxy-2-pyridyl)sulfonyl]-2-oxo-indolin-3-yl]-2-(2-morpholinoethyl)-2,6-diazaspiro[3.3]heptane-6-carboxamide] | 1 to 10 | +++ (>75)
CCOc1ncccc1[C@]1(NC(=O)C2CC3(C2)CN(C2CN(C)C2)C3)C(=O)N(S(=O)(=O)c2ccc(OC)cc2)c2ccc(C#N)cc21 [Example 46, N-[(3S)-5-Cyano-3-(2-ethoxy-3-pyridyl)-1-(4-methoxyphenyl)sulfonyl-2-oxo-indolin-3-yl]-6-(1-methylazetidin-3-yl)-6-azaspiro[3.3]heptane-2-carboxamide] | 1 to 10 | + (10-<25)
CCOc1ncccc1[C@]1(NC(=O)N2CC3(CN(CCN4CCOCC4)C3)C2)C(=O)N(S(=O)(=O)c2ccc(OC)cc2)c2cc(F)c(C#N)cc21 [Example 19, N-[(3S)-5-Cyano-3-(2-ethoxy-3-pyridyl)-6-fluoro-1-(4-methoxyphenyl)sulfonyl-2-oxo-indolin-3-yl]-2-(2-morpholinoethyl)-2,6-diazaspiro[3.3]heptane-6-carboxamide] | 1 to 10 | +++ (>75)
CCOc1ncccc1[C@]1(NC(=O)N2CC3(C2)CN(C2CCN(C)CC2)C3)C(=O)N(S(=O)(=O)c2ccc(OC)cc2)c2ccc(C#N)cc21 [Example 33, N-[(3S)-5-Cyano-3-(2-ethoxy-3-pyridyl)-1-(4-methoxyphenyl)sulfonyl-2-oxo-indolin-3-yl]-2-(1-methyl-4-piperidyl)-2,6-diazaspiro[3.3]heptane-6-carboxamide] | 10 to 100 | ++ (25-75)
CCOc1ncccc1C1(NC(=O)N2CC3(C2)CN(C2CCNCC2)C3)C(=O)N(S(=O)(=O)c2ccc(OC)cc2OC)c2ccc(C#N)cc21.O=C(O)C(F)(F)F (stereo not shown) [Example 59, N-(5-Cyano-1-(2,4-dimethoxyphenylsulfonyl)-3-(2-ethoxypyridin-3-yl)-2-oxoindolin-3-yl)-6-(piperidin-4-yl)-2,6-diazaspiro[3.3]heptane-2-carboxamide 2,2,2-trifluoroacetate] | 10 to 100 | +++ (>75)

Next, values leading:

Ki [1] [nM] | Ki(h-V1a)/Ki(h-V1b) [2] | SMILES
1 to 10 | +++ (>75) | CCOc1ccccc1[C@]1(NC(=O)N2CC3(C2)CN(C2CCN(C(C)C)CC2)C3)C(=O)N(S(=O)(=O)c2ccc(OC)cc2)c2ccc(C#N)cc21 [Example 40, N-[(3S)-5-Cyano-3-(2-ethoxyphenyl)-1-(4-methoxyphenyl)sulfonyl-2-oxo-indolin-3-yl]-2-(1-isopropyl-4-piperidyl)-2,6-diazaspiro[3.3]heptane-6-carboxamide]
10 to 100 | + (10-<25) | CCOc1ncccc1[C@]1(NC(=O)C2CC3(C2)CN(C2CCN(C(C)C)CC2)C3)C(=O)N(S(=O)(=O)c2ccc(OC)cc2)c2ccc(C#N)cc21 [Example 45, N-[(3S)-5-Cyano-3-(2-ethoxy-3-pyridyl)-1-(4-methoxyphenyl)sulfonyl-2-oxo-indolin-3-yl]-6-(1-isopropyl-4-piperidyl)-6-azaspiro[3.3]heptane-2-carboxamide]
< 1 | +++ (>75) | CCOc1ncccc1[C@]1(NC(=O)N2CC3(CN(CCN4CCOCC4)C3)C2)C(=O)N(S(=O)(=O)c2ccc(OC)cc2F)c2ccc(C#N)cc21 [Example 18, N-[(3S)-5-Cyano-3-(2-ethoxy-3-pyridyl)-1-(2-fluoro-4-methoxy-phenyl)sulfonyl-2-oxo-indolin-3-yl]-2-(2-morpholinoethyl)-2,6-diazaspiro[3.3]heptane-6-carboxamide]
1 to 10 | +++ (>75) | CCOc1ncccc1[C@]1(NC(=O)N2CC3(C2)CN(C2CCN(C(C)C)CC2)C3)C(=O)N(S(=O)(=O)c2ccc(OC)cc2)c2ccc(C#N)cc21 [Example 29, N-[(3S)-5-Cyano-3-(2-ethoxy-3-pyridyl)-1-(4-methoxyphenyl)sulfonyl-2-oxo-indolin-3-yl]-2-(1-isopropyl-4-piperidyl)-2,6-diazaspiro[3.3]heptane-6-carboxamide]
1 to 10 | ++ (25-75) | CCOc1ncccc1C1(CC(=O)N2CC3(CN(CCN4CCOCC4)C3)C2)C(=O)N(S(=O)(=O)c2ccc(OC)cc2)c2ccc(C#N)cc21 (racemic) [Example 20, 3-(2-Ethoxy-3-pyridyl)-1-(4-methoxyphenyl)sulfonyl-3-[2-[2-(2-morpholinoethyl)-2,6-diazaspiro[3.3]heptan-6-yl]-2-oxo-ethyl]-2-oxo-indoline-5-carbonitrile]
10 to 100 | +++ (>75) | CCOc1ncccc1[C@]1(NC(=O)N2CC3(CN(CCCN4CCOCC4)C3)C2)C(=O)N(S(=O)(=O)c2ccc(OC)cc2)c2ccc(C#N)cc21 [Example 2, N-[(3S)-5-Cyano-3-(2-ethoxy-3-pyridyl)-1-(4-methoxyphenyl)sulfonyl-2-oxo-indolin-3-yl]-2-(3-morpholinopropyl)-2,6-diazaspiro[3.3]heptane-6-carboxamide]
10 to 100 | +++ (>75) | CCOc1ccccc1[C@]1(NC(=O)N2CC3(C2)CN(C2CCN(C(C)C)CC2)C3)C(=O)N(S(=O)(=O)c2ccc(F)cc2)c2ccc(C#N)cc21.O=C(O)C(F)(F)F [Example 43B, N-[(3S)-5-Cyano-3-(2-ethoxyphenyl)-1-(4-fluorophenyl)sulfonyl-2-oxo-indolin-3-yl]-2-(1-isopropyl-4-piperidyl)-2,6-diazaspiro[3.3]heptane-6-carboxamide; 2,2,2-trifluoroacetic acid]
1 to 10 | ++ (25-75) | CCOc1ncccc1[C@]1(NC(=O)N2CC3(CN(CCN4CCOCC4)C3)C2)C(=O)N(S(=O)(=O)c2ccc(F)cc2OC)c2ccc(C#N)cc21 [Example 17, N-[(3S)-5-Cyano-3-(2-ethoxy-3-pyridyl)-1-(4-fluoro-2-methoxy-phenyl)sulfonyl-2-oxo-indolin-3-yl]-2-(2-morpholinoethyl)-2,6-diazaspiro[3.3]heptane-6-carboxamide]
10 to 100 | +++ (>75) | CCOc1ncccc1[C@]1(NC(=O)N2CC3(CN(CCN4CCOCC4)C3)C2)C(=O)N(S(=O)(=O)c2ccccc2OC)c2ccc(C#N)cc21 [Example 14, N-[(3S)-5-Cyano-3-(2-ethoxy-3-pyridyl)-1-(2-methoxyphenyl)sulfonyl-2-oxo-indolin-3-yl]-2-(2-morpholinoethyl)-2,6-diazaspiro[3.3]heptane-6-carboxamide]
< 1 | +++ (>75) | CCOc1ncccc1[C@]1(NC(=O)N2CC3(CN(CCN4CCOCC4)C3)C2)C(=O)N(S(=O)(=O)c2ccc(OC)cc2OC)c2ccc(C#N)cc21 [Example 15, N-[(3S)-5-Cyano-1-(2,4-dimethoxyphenyl)sulfonyl-3-(2-ethoxy-3-pyridyl)-2-oxo-indolin-3-yl]-2-(2-morpholinoethyl)-2,6-diazaspiro[3.3]heptane-6-carboxamide]
10 to 100 | +++ (>75) | CCOc1ncccc1[C@]1(NC(=O)N2CC3(C2)CN(C2CCN(C(C)C)CC2)C3)C(=O)N(S(=O)(=O)c2ccc(F)cc2)c2ccc(C#N)cc21 [Example 27, N-[(3S)-5-Cyano-3-(2-ethoxy-3-pyridyl)-1-(4-fluorophenyl)sulfonyl-2-oxo-indolin-3-yl]-2-(1-isopropyl-4-piperidyl)-2,6-diazaspiro[3.3]heptane-6-carboxamide]
10 to 100 | +++ (>75) | CCOc1ccccc1[C@]1(NC(=O)N2CC3(C2)CN(C2CCN(C(C)C)CC2)C3)C(=O)N(S(=O)(=O)c2ccc(C#N)cc2)c2ccc(C#N)cc21 [Example 42, N-[(3S)-5-Cyano-1-(4-cyanophenyl)sulfonyl-3-(2-ethoxyphenyl)-2-oxo-indolin-3-yl]-2-(1-isopropyl-4-piperidyl)-2,6-diazaspiro[3.3]heptane-6-carboxamide]
